The record followed here is US11679099B2, “Use of HIF-2α inhibitors for treating chondrosarcoma, or preventing recurrence and metastasis thereof” (SEOUL NATIONAL UNIVERSITY R&DB FOUNDATION, priority 2020, dated 2023).

Entries after “also recorded” stand apart in the source; their conditions may differ.

One data set has as its system SW1353 tumors. Description: Adjuvant chemotherapy in orthotopic chondrosarcoma xenograft model. It is filed as in vivo, athymic nude mice (BALB/c nu/nu). To be noted: mice, i.p., 2 mg/kg cisplatin and/or 20 mg/kg TC-S7009, twice weekly for four weeks. The text has this:
FIG. 5G is a schematic diagram of combination chemotherapy with TC-S7009. Mice were intraperitoneally injected 8 times with DMSO, cisplatin, TC-S7009, or cisplatin plus TC-S7009, twice a week from two weeks following the orthotopic xenograft (n=5).
Mice and experimental systems. Female athymic nude mice (BALB/c nu/nu, 5 weeks old) were purchased from Daehan-Biolink Co. and housed in individually ventilated cages. Mice were maintained under pathogen-free conditions. Food and water were provided after their sterilization. For in vivo experiments, at least five mice per experimental condition were used. Animals were randomly allocated to each experimental group, and the treatment allocation was blinded. In the orthotopic injection model, SW1353 cells were trypsinized and resuspended in PBS after centrifugation. The number of cells was adjusted to 1×10^6 cells per 25 μl. For SW1353 cells that stably overexpressed eGFP or HIF-2α, cell number was adjusted to 1×10^5 cells per 25 μl. Cells were mixed with 25 μl of Geltrex (Thermo Fisher Scientific, Geltrex™ LDEV-Free Reduced Growth Factor Basement Membrane Matrix). Before the procedure, mice were anesthetized. Skin was incised using a scalpel, and a single 0.35-mm diameter hole was drilled through the cartilage of the upper right tibia with the aid of sterile H-files (MANI, 28 mm #70). Subsequently, 10 μl of cell mixture was slowly injected with a 30-gauge microsyringe needle through the hole. The hole was sealed using surgical wax, and the surgery site was extensively rinsed with sterile PBS to wash out any spilled cell mixture. As the last step of the surgical procedure, the cutaneous wound was sutured. After the chosen experimental periods, mice were sacrificed, and total hindlimbs were dissected. For lung specimens, PBS was instilled through the trachea, and all specimens were processed for histomorphometric and immunohistochemical analysis. For the adjuvant chemotherapy studies, two weeks after the orthotopic injection of chondrosarcoma cells, mice were injected intraperitoneally with or without 2 mg/kg cisplatin in the presence or absence of 20 mg/kg TC-S7009 (Tocris) dissolved in Kolliphor EL (castor oil, 10% v/v, Sigma Aldrich, C5135). Vehicle solution was composed of DMSO, PBS, and Kolliphor EL (10% v/v). Chemotherapy cocktails were administered to mice twice weekly for four weeks.

In data set [1] the test system is SW1353 cells. The data set is described as follows: Apoptosis analysis, Annexin-V/PI flow cytometry. The data set is classed as cell-based, human. To be noted: 10 μM TC-S7009 pretreatment 48 h and/or 5 μg/ml cisplatin 24 h. Here is the method:
Drug Interaction Studies. For analysis of combination index (CI), SW1353 cells were pretreated with vehicle, 10 μM Nutlin-3a, 10 μM ABT-888, or 10 μM TC-S7009 for 48 h and additionally treated with 0.2, 0.5, 1, 2, or 5 μg/ml cisplatin or left untreated for 72 h. Cell viability was measured by the MTT assay. CI was calculated using the Compusyn software version 1.0, and synergistic effects were determined by the Chou-Talalay method (Chou T C. Drug Combination Studies and Their Synergy Quantification Using the Chou-Talalay Method. Cancer Res. 2010; 70(2):440-446). Drug combination at a non-constant ratio was used to calculate CI. For apoptosis analysis, SW1353 cells were pretreated with vehicle, 10 μM Nutlin-3a, 10 μM ABT-888, or 10 μM TC-S7009 for 48 h and additionally treated with 5 μg/ml cisplatin for 24 h. Subsequently, cells were stained with the Annexin V-FITC Apoptosis Detection Kit (Sigma Aldrich, APOAF) according to manufacturer's protocol. Flow cytometry analysis was performed on a FACSCanto II flow cytometer (BD Biosciences).

Data set [2] has as its system SW1353 cells. Description: Migration assay. It is filed as cell-based, human. To be noted: 10 μM TC-S7009 vs DMSO. The source says: (§1) (A) SW1353 cells were co-transfected with pcDNA3 or pcDNA3-EPAS1 and the HRE containing reporter plasmid in the absence or presence of different doses of TC-S7009. HRE reporter activity was normalized to Renilla luciferase activity (n=5). (B) Trypan blue exclusion assay to test the effect of TC-S7009 on cell viability of SW1353 cells (n=3). (C) Colony formation assay of SW1353 cells in the absence or presence of different doses of TC-S7009. The number of colonies counted using the ImageJ software (n=5). (D) Migration assay performed using SW1353 cells treated with DMSO or 10 μM TC-S7009. Representative images are shown (Left), and the relative area of migration (Right) was determined using the Image-Pro Premier software (n=6). (Scale bar, 200 μm.) Values indicate the mean±SEM, ***P<0.001, N.S., not significant, ANOVA (A-C) and Student's t test (D). P values; N.S.=non-significant, ***P<0.001. HRE=hypoxia response element; P=P value.
Migration assay. SW1353 and OUMS-27 cells were cultured in a 6-well plate at a density of 5×10^5 cells per well. When cells achieved 90% confluence, a wound was made with a sterile yellow tip. Cells were washed with PBS three times and incubated in fresh media with 1% FBS for 36 h. Every 12 h, randomly selected fields were captured by a digital camera under a microscope.

The subject of data set [3] is SW1353 cells. The data set is described as follows: Transwell invasion assay. It is filed as cell-based, human. To be noted: 10 μM TC-S7009 vs DMSO. Here is the method:
FIG. 5A is the results of Transwell invasion (n=3) assay using SW1353 cells treated with DMSO or 10 μM TC-S7009. Representative images were shown, the invaded cells were calculated on the random image fields and normalized to the cells treated with DMSO. Scale Bar=200 μm.
Transwell invasion assay. The invasion assay was performed using Transwell (BD Falcon, pore size, 8 μm, PET) in 24-well plates. Filters were coated with 20 μg of Geltrex (Thermo Fisher Scientific) in 20 μl of serum-free DMEM and dried for 4 h in a sterile environment. Prior to the invasion assay, SW1353 and OUMS-27 cells were starved for 12 h in serum-free DMEM. Immediately before seeding the cells, the dried transwells were rehydrated with 25 μl of serum-free DMEM for 1 h at 37° C. Starved cells were trypsinized, centrifuged, and resuspended in serum-free DMEM. Approximately 1×10^5 cells in 200 μl of serum-free DMEM were placed in each transwell and 2 ml of DMEM supplemented with 10% FBS was placed in each 24-well plate. The plates were incubated for 48 h at 37° C., fixed in 4% paraformaldehyde for 2 min, permeabilized in 100% methanol for 20 min, and stained with 0.1% crystal violet in 10% ethanol for 20 min. Cells on the upper side of the transwell were removed with cotton-tipped swabs. […] Image fields were randomly chosen, and invading cells were counted using the ImageJ software (National Institutes of Health).

Data set [4] addresses T1, HIF-2α (Homo sapiens, UniProt Q99814).
T1 construct: host or cells: SW1353 cells
Description: HRE reporter gene (luciferase) assay. To be noted: SW1353 cells co-transfected with pcDNA3-EPAS1 and HRE reporter; different doses of TC-S7009, 24 h. It is filed as cell-based. (In general: Reporter assays use an easily measured gene product as a stand-in for the process of interest.)
Description: (A) SW1353 cells were co-transfected with pcDNA3 or pcDNA3-EPAS1 and the HRE containing reporter plasmid in the absence or presence of different doses of TC-S7009. HRE reporter activity was normalized to Renilla luciferase activity (n=5). […] (Scale bar, 200 μm.) Values indicate the mean±SEM, ***P<0.001, N.S., not significant, ANOVA (A-C) and Student's t test (D).
Luciferase assay. HIF-2α activity was determined by reporter gene assay. SW1353 cells were transfected with 1 μg of a reporter vector containing hypoxia responsive element repeats. The thymidine kinase promoter-Renilla luciferase reporter plasmid (pRL-TK) was used as a control for measuring transfection efficiency. […] Twenty-four hours after transfection, cells were treated with TC-S7009 for an additional 24 h. Luciferase activity was measured using luciferin and normalized by Renilla luciferase activity.

The test system of data set [5] is SW1353 cells. The data set is described as follows: Trypan blue exclusion assay (cell viability). The data set is classed as cell-based, human.
Text: as §1

In data set [6] the test system is SW1353 cells. The data set is described as follows: Colony formation assay. The data set is classed as cell-based, human. To be noted: 10 μM or different doses of TC-S7009 vs DMSO. As to the method: FIG. 5D is the results of colony formation (P<0.001, n=5) assays using SW1353 cells treated with DMSO or 10 μM TC-S7009 assay using SW1353 cells treated with DMSO or 10 μM TC-S7009. The representative images and quantification results were shown.
as §1
Colony formation assay. SW1353 cells were suspended in DMEM supplied with 10% FBS and seeded in 6-well plates; 1×10^3 and 500 cells were seeded in each well for the knockdown and overexpression experiments, respectively. […]

In data set [7] the test system is SW1353 cells. The data set is described as follows: Sphere formation assay. The data set is classed as cell-based, human. To be noted: 10 μM TC-S7009 vs DMSO. Here is the method: FIG. 5C is the results of sphere formation (n=3) assays using SW1353 cells treated with DMSO or 10 μM TC-S7009 assay using SW1353 cells treated with DMSO or 10 μM TC-S7009. The representative images were shown and the diameter of the spheres were measured. Box-whisker plot were used to present the data. Scale Bar=200 μm.
Sphere formation assay. SW1353 and OUMS-27 cells were suspended in DMEM-F12 medium supplemented with 2% of B27 supplement (Thermo Fisher Scientific), 20 ng/ml EGF (Invitrogen), and 20 ng/ml basic fibroblast growth factor (bFGF; Peprotech). For experiments using SW1353 cells overexpressing eGFP or HIF-2α, cells were suspended in DMEM-F12 medium in the absence of the above supplements. Cells were then seeded in 24-well Ultra-low attachment plates (Corning) at a density of 1×10^4 cells per well. Four days later, fresh medium was added in each well. Seven days later, spheres were analyzed by the sphere diameter and the number of spheres larger than 50 μm (Axio Observer Z1, Zeiss). In relation to the diameter of the spheres, three representative fields per well were imaged, and diameters were measured using the AxioVision software (Zeiss): the three longest diameters per image field for each group were recorded. The distribution of the sphere diameters was plotted using the notched Box-and-Whisker plot originally invented by Tukey. […]

The test system of data set [8] is SW1353 cells. Description: Gelatin degradation assay. The data set is classed as cell-based, human. To be noted: 10 μM TC-S7009 vs DMSO. Here is the method:
Gelatin degradation assay. SW1353 cells were seeded on coverslips coated with Oregon Green 488-conjugated gelatin (Life Technologies) at 4×10^4 cells per well. Briefly, coverslips were treated with 50 μg/ml poly-D-Lysine (Corning) for 20 min followed by 0.5% glutaraldehyde (Junsei Chemical) for 15 min on ice. Treated coverslips were coated at 37° C. with pre-warmed 200 μg/ml Oregon Green 488-conjugated gelatin for 10 min in the dark, treated with 5 mg/ml NaBH4 for 15 min, and extensively washed with 70% ethanol and PBS. Cells were incubated for 18 h after seeding. For imaging gelatin degradation, cells were fixed with 50% methanol (v/v) and 10% acetic acid (v/v) solution for 10 min and stained with DAPI. For each coverslip, three fields were imaged at 20× magnification using a fluorescence microscope (EVOS FL Cell Imaging System, Thermo Fisher Scientific). To quantify gelatin degradation, the area of degradation in each field was measured by color-thresholding, using the ImageJ software.

The test system of data set [9] is HIF-2α. The data set is described as follows: siRNA knockdown of HIF-2α in SW1353 cells. It is filed as cell-based, human. To be noted: SW1353 cells transfected with siRNA. As to the method:
Cell culture. Chondrosarcoma cell lines SW1353 and OUMS-27 were purchased from ATCC and JCRB Cell Bank, respectively, maintained in 3% O2 at 37° C., and cultured in DMEM (WelGENE Inc., LM001-05) supplemented with 10% FBS (Gibco, 26140079) and 1% antibiotics. For the selection of stable cell lines, 1×10^3 cells were seeded in 100 mm dishes and incubated for approximately two weeks until colonies became visible, and they were supplied with fresh media every three days. Visible colonies were individually isolated using cloning rings. Single colony-forming cells were trypsinized, seeded into 24-well plates, and gradually expanded to 100 mm dishes. Transfection was performed with METAFECTENE PRO (Biontex, T040) according to the manufacturer's protocol. All siRNAs were purchased from Bioneer. All cell lines were tested and authenticated using short-tandem repeat (STR) profiling by the Korean Cell Line Bank and were free of mycoplasma contamination. None of the cell line stocks used in this study was found in the database of commonly misidentified cell lines listed by ICLAC.
Microarray. SW1353 cells (3×10^5) were transfected with control, HIF1A, or EPAS1 siRNAs. Three biological replicates were used for each group. cDNA was synthesized using the GeneChip WT (Whole Transcript) Amplification kit as described by the manufacturer. […]

T1 sequence (Q99814 whole entry): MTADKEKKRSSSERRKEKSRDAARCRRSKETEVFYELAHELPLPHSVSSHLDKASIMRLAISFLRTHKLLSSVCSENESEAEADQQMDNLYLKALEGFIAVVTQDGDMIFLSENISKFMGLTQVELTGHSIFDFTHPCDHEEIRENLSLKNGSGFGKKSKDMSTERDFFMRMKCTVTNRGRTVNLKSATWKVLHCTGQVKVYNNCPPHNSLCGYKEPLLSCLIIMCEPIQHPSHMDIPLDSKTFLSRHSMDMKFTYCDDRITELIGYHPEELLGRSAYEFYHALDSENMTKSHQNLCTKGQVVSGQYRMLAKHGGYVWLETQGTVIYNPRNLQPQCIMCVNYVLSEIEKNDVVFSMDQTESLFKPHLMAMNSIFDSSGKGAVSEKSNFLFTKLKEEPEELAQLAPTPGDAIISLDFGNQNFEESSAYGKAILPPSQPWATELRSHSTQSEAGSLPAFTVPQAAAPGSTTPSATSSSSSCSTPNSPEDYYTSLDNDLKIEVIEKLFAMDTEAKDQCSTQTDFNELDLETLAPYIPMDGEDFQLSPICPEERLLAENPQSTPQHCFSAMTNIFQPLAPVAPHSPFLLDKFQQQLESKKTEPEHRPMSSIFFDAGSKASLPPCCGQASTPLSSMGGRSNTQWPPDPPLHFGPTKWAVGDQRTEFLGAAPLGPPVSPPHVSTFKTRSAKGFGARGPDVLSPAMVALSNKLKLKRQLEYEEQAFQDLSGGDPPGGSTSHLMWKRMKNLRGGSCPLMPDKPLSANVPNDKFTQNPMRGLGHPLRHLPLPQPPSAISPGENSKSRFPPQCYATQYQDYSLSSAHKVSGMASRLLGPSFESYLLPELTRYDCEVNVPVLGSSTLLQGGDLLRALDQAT

Regarding `N.N.[Cl][Pt][Cl]` [Cisplatin, cisplatin], in the data set on SW1353 tumors, the “extraosseous outgrowth of primary tumor” value was “mild-to-moderate reduction” and the “pulmonary (lung) metastasis” value was “mild-to-moderate reduction”. Moreover, in the data set with SW1353 cells [1], the “apoptotic cells (Annexin-V and PI positive populations)” value was “mild increase”.
Regarding `O=[N+]([O-])c1c(Nc2cc(F)cc(Cl)c2)ccc2nonc12` [TC-S7009, N-(3-Chloro-5-fluorophenyl)-4-nitro-2,1,3-benzoxadiazol-5-amine], the migration ability result in the data set on SW1353 cells [2] is “without affecting”. The “invasive phenotypes (transwell invasion)” value in the data set with SW1353 cells [3] is reported as “effectively blocked”. Also, the “transcriptional activity of HIF-2α (HRE reporter activity)” value at HIF-2α [4] is “effectively abolished; also recorded: effectively blocks”. Moreover, in the data set with SW1353 tumors, the “extraosseous outgrowth of primary tumor” value was “mild-to-moderate reduction” and the “pulmonary (lung) metastasis” value is listed as “mild-to-moderate reduction”. The “cytotoxicity / cell viability” value in the data set on SW1353 cells [5] was “without any apparent cytotoxicity; also recorded: without affecting”. For the same molecule, the “clonogenicity (colony formation)” value in the data set with SW1353 cells [6] is “effectively blocked”. Further, in the data set with SW1353 cells [7], the sphere formation entry is “effectively blocked”. Besides, the “apoptotic cells (Annexin-V and PI positive populations)” value with SW1353 cells [1] is “did not noticeably affect cell death”. Further, the “matrix-degrading activity (gelatin degradation)” value with SW1353 cells [8] is listed as “effectively blocked”.
On to “EPAS1 siRNA: siRNA for HIF-2α, sense and antisense SEQ ID Nos: 3 and 4 with dTdT overhang (sense ACUACGUCCUGAGUGAGAUDTDT; antisense AUCUCACUCAGGACGUAGUDTDT; dTdT overhangs, chemistry not fully specified)”, for which, in the data set with HIF-2α [9], the “expression of HIF-2α at the cellular level” value is reported as “effectively suppress”.
